Earlier results in patent US20220233546A1, “Neurologist Formulated Nocturnal Nootropic Founded on a Novel Theory of Brain Aging” (priority 2022, published 2022).
Where two headings read alike, the source gives them in different places.

What was measured:
[1] = tested on: young persons with multiple sclerosis
[2] = tested on: children with autism spectrum disorder; details: combination therapy including Luteolin 100 mg
[3] = human; saffron extract 56 mg and 84 mg
[4] = daily dose of 200 to 2400 mg/day
[5] = 675 mg, at 4 weeks
[6] = tested on: multiple sclerosis; details: high doses; adjunctive therapy in multiple sclerosis
[7] = tested on: amyotrophic lateral sclerosis (ALS)
[8] = tested on: neurohypophyseal hormone release
[9] = tested on: persons with mild cognitive impairment
[10] = tested on: adults without dementia
[11] = tested on: persons with Alzheimer's disease, Parkinson's disease, and multiple sclerosis; details: combination therapy including Apigenin 100 mg
[12] = in vivo
[13] = tested on: plasma homocysteine; details: supplementation, human
[14] = tested on: persons with mild cognitive impairment; remark: listed apart in the source

## O=C(O)CCCC[C@@H]1CCSS1 [(R)-Alpha Lipoic Acid]
[1]; human, in vivo
  safety and tolerability profile: good safety and tolerability profile
[1]; young persons with multiple sclerosis
  reduction of yearly rate of brain atrophy: ~70%

## O=c1cc(-c2ccc(O)c(O)c2)oc2cc(O)cc(O)c12 [Luteolin]
[2]
  adaptive functioning and Aberrant Behavior Checklist subscale scores: improvement in adaptive functioning and reduction in Aberrant Behavior Checklist subscale scores
  adverse effects: no adverse effects

## CC(/C=C/C=C(\C)C(=O)O)=C\C=C\C=C(C)\C=C\C=C(/C)C(=O)O [Crocetin]
[3]
  bioavailability: 40%
  serum concentration of saffron isomers: detected at a significant concentration

## O=C(O)CCCCC1CCSS1 (racemic) [ALA, Alpha Lipoic Acid]
[4]
  safety and tolerability: safe and well-tolerated

## O=C(O)[C@H](O)[C@@H](O)CO [L-Threonate]
[5]
  increase in CSF Threonate concentration: 54%
[5]; CSF
  increase in magnesium concentration: 15%
CSF
  Threonate concentration in cerebrospinal fluid (CSF): ~100 µM
plasma
  Threonate concentration in plasma: approximately 20 μM

## C=C1CC[C@H](O)C/C1=C/C=C1\CCC[C@]2(C)[C@@H]([C@H](C)CCCC(C)C)CC[C@@H]12 [cholecalciferol, Cholecalciferol]
[6]
  brain lesions, disability and mobility: fewer new brain lesions, reduced disability, and improved mobility

## CC1=C(C=O)C(C)(C)CC=C1 [safranal, reference compound]
[3]
  serum concentration of saffron isomers: undetectable

## COc1cc(/C=C/c2ccc(O)cc2)cc(OC)c1 [Trans-Pterostilbene]
[7]
  function and progression of neurodegenerative processes: significantly improves function in and slows progression of neurodegenerative processes

## COc1ccc2[nH]cc(CCNC(C)=O)c2c1 [melatonin, Melatonin]
[8]; higher dose melatonin 5 mg
  neurohypophyseal hormone release: inhibited
[8]; low dose melatonin 0.5 mg
  neurohypophyseal hormone release: augmented
[9]
  cognition after a battery of neurocognitive testing: significant improvement in cognition

## COc1cc(/C=C/C(=O)CC(=O)/C=C/c2ccc(O)c(OC)c2)ccc1O [Curcumin]
[10]; adults without dementia
  working memory and attention (Buschke Selective Reminding Test, Brief Visual Memory Test-Revised, Trail Making A): improves working memory and attention
[10]; brain regions including the amygdala
  post-interventional changes in pathological proteins (amyloid and tau) by positron emission tomography: significant decrease in pathological proteins

## O=c1cc(-c2ccc(O)cc2)oc2cc(O)cc(O)c12 [Apigenin]
[11]
  clinical course and biomarkers including abnormal protein deposition: trend towards clinical stabilization and reduction of specific biomarkers

## C/C1=C2/[N-][C@H]([C@H](CC(N)=O)[C@@]2(C)CCC(=O)NC[C@H](C)OP(=O)([O-])O[C@H]2[C@@H](O)[C@@H](n3cnc4cc(C)c(C)cc43)O[C@@H]2CO)[C@]2(C)N=C(/C(C)=C3N=C(/C=C4N=C1[C@@H](CCC(N)=O)C\4(C)C)[C@@H](CCC(N)=O)[C@]\3(C)CC(N)=O)[C@@H](CCC(N)=O)[C@]2(C)CC(N)=O.[Co+2] (stereo in doubt) [cobalamin]
[12]
  bioavailability: 50%

## C[N+](C)(C)CC(=O)O [Betaine]
[13]
  plasma homocysteine concentrations: significant reduction

## Nc1nc2ncc(CNc3ccc(C(=O)N[C@@H](CCC(=O)O)C(=O)O)cc3)nc2c(=O)[nH]1 [folic acid]
[14]
  dementia-related biomarkers (beta-amyloid, homocysteine, S-adenosylmethionine, amyloid precursor protein mRNA expression): deceases dementia-related biomarkers
[14]; pre- and post-intervention
  cognitive function (full scale IQ, verbal IQ, verbal comprehension index, working memory index): improves cognitive function
